Measured values published in US8399462B2, “JNK modulators” (Roche Palo Alto LLC, priority 2006, dated 2013).
Several values for one entry are separate records, joined by “and”; a condition that tells them apart may be missing. Equal values may be shown once.

Compound | melting point
CC(C)(O)c1cccc2c1ccn2-c1ccnc(N[C@H]2CC[C@H](N(CCO)S(C)(=O)=O)CC2)n1 [Compound 240, N-(2-hydroxyethyl)-N-(4-{4-[4-(2-hydroxy-prop-2-yl)-indol-1-yl]-pyrimidin-2-ylamino}-cyclohexyl)-methane-sulfonamide] | 214 to 215 °C
Oc1cccc2c1cnn2-c1ccnc(N[C@H]2CC[C@H](O)CC2)n1 [Compound 242, 1-[2-(4-hydroxy-cyclohexylamino)-pyrimidin-4-yl]-1H-indazol-4-ol] | > 300 °C
NS(=O)(=O)CCCOc1cccc2c1cnn2-c1ccnc(N[C@H]2CC[C@H](C(=O)N3CCC(O)CC3)CC2)n1 [Compound 243, 3-(1-{2-[4-(4-hydroxy-piperidine-1-carbonyl)-cyclohexylamino]-pyrimidin-4-yl}-1H-indazol-4yloxy)-propane-1-sulfonic acid amide] | 237 to 238 °C
CS(=O)(=O)N[C@H]1CC[C@H](Nc2nccc(-n3cc(C#N)c4ccccc43)n2)CC1 [Compound 247, N-{4-[4-(3-cyano-indol-1-yl)-pyrimidin-2-ylamino]-cyclohexyl}-methanesulfonamide] | > 300 °C
CN([C@H]1CC[C@H](Nc2nccc(-n3cc(C#N)c4ccccc43)n2)CC1)S(C)(=O)=O [Compound 248, N-{4-[4-(3-cyano-indol-1-yl)-pyrimidin-2-ylamino]-cyclohexyl}-N-methyl-methane-sulfonamide] | 289 to 290 °C
N#Cc1cn(-c2ccnc(N[C@H]3CC[C@H](C(=O)N4CCC(O)CC4)CC3)n2)c2ccccc12 [Compound 249, 1-{2-[4-(4-hydroxy-piperidine-1-carbonyl)-cyclohexylamino]-pyrimidin-4-yl}-1H-indol-3-carbonitrile] | 259 to 260 °C
CS(=O)(=O)CCCOc1cccc2c1ccn2-c1ccnc(N[C@H]2CC[C@H](C(N)=O)CC2)n1 [Compound 250, 4-{4-[4-(3-methane-sulfonyl-propoxy)-indol-1-yl]-pyrimidin-2-ylamino}-cyclohexane-carboxylic acid amide] | 249 to 250 °C
CN(C)C(=O)[C@H]1CC[C@H](Nc2nccc(-n3ccc4c(OCCCS(C)(=O)=O)cccc43)n2)CC1 [Compound 251, 4-{4-[4-(3-methane-sulfonyl-propoxy)-indol-1-yl]-pyrimidin-2-ylamino}-cyclohexane-carboxylic acid dimethylamide] | 169 to 170 °C
CS(=O)(=O)CCCOc1cccc2c1cnn2-c1ccnc(N[C@H]2CC[C@H](C(=O)c3ccccc3)CC2)n1 [Compound 255, (4-{4-[4-(3-methane-sulfonyl-propoxy)-indazol-1-yl]-pyrimidin-2-ylamino}-cyclohexyl)-phenyl-methanone] | 174.5 to 175.5 °C
CS(=O)(=O)CCCOc1cccc2c1cnn2-c1ccnc(N[C@H]2CC[C@H](C(=O)c3ccccn3)CC2)n1 [Compound 256, (4-{4-[4-(3-methane-sulfonyl-propoxy)-indazol-1-yl]-pyrimidin-2-ylamino}-cyclohexyl)-pyrid-2-yl-methanone] | 200 to 201 °C
COC(=O)c1cccc2c1ccn2-c1ccnc(N[C@H]2CC[C@H](NS(=O)(=O)C3CC3)CC2)n1 [Compound 257, 1-[2-(4-cyclopropane-sulfonylamino-cyclo-hexylamino)-pyrimidin-4-yl]-1H-indole-4-carboxylic acid methyl ester] | 250 to 251 °C
CC(C)(O)c1cccc2c1ccn2-c1ccnc(N[C@H]2CC[C@H](NS(=O)(=O)N3CCCC3)CC2)n1 [Compound 258, Pyrrolidine-1-sulfonic acid (4-{4-[4-(2-hydroxyprop-2-yl)-indol-1-yl]-pyrimidin-2-ylamino}-cyclohexyl)-amide] | 178 to 179 °C
CC(C)(O)c1cccc2c1ccn2-c1ccnc(N[C@H]2CC[C@H](NS(=O)(=O)N3CCOCC3)CC2)n1 [Compound 259, Morpholine-4-sulfonic acid (4-{4-[4-(2-hydroxyprop-2-yl)-indol-1-yl]-pyrimidin-2-ylamino}-cyclohexyl)-amide] | > 300 °C
CCOC(=O)[C@H]1CC[C@H](Nc2nccc(-n3ncc4c(OCCCS(N)(=O)=O)cccc43)n2)CC1 [Compound 260, 4-{4-[4-(3-sulfamoyl-propoxy)-indazol-1-yl]-pyrimidin-2-ylamino}-cyclohexanecarboxylic acid ethyl ester] | 166 to 167 °C
COC1CCCN(C(=O)[C@H]2CC[C@H](Nc3nccc(-n4ccc5c(OCCCS(C)(=O)=O)cccc54)n3)CC2)C1 (some centres unmarked) [Compound 263, (4-{4-[4-(3-methane-sulfonyl-propoxy)-indol-1-yl]-pyrimidin-2-ylamino}-cyclohexyl)-(3-methoxy-piperidin-1-yl)-methanone] | 121 to 122 °C
CS(=O)(=O)CCCOc1cccc2c1ccn2-c1ccnc(N[C@H]2CC[C@H](C(=O)N3CCCC(C#N)C3)CC2)n1 (some centres unmarked) [Compound 264, 1-(4-{4-[4-(3-methane-sulfonyl-propoxy)-indol-1-yl]-pyrimidin-2-ylamino}-cyclohexane-carbonyl)-piperidine-3-carbonitrile] | 132 to 133 °C

Compound | melting point
CS(=O)(=O)CCCOc1cccc2c1ccn2-c1ccnc(N[C@H]2CC[C@H](C(=O)N3CCC(C#N)CC3)CC2)n1 [Compound 265, 1-(4-{4-[4-(3-methane-sulfonyl-propoxy)-indol-1-yl]-pyrimidin-2-ylamino}-cyclohexane-carbonyl)-piperidine-4-carbonitrile] | 150.5 to 156.5 °C
CC(=O)N1CCN(c2cccc3c2ccn3-c2ccnc(N[C@H]3CC[C@H](NS(C)(=O)=O)CC3)n2)CC1 [Compound 267, N-(4-{4-[4-(4-acetyl-piperazin-1-yl)-indol-1-yl]-pyrimidin-2-yl-amino}-cyclohexyl)-methanesulfonamide] | 268 to 269 °C
COC1CN(C(=O)[C@H]2CC[C@H](Nc3nccc(-n4ccc5c(OCCCS(C)(=O)=O)cccc54)n3)CC2)C1 [Compound 274, (4-{4-[4-(3-methane-sulfonyl-propoxy)-indol-1-yl]-pyrimidin-2-ylamino}-cyclohexyl)-(3-methoxy-azetidin-1-yl)-methanone] | 162 to 163 °C
CN(C)C1CCN(C(=O)[C@H]2CC[C@H](Nc3nccc(-n4ccc5c(OCCCS(C)(=O)=O)cccc54)n3)CC2)CC1 [Compound 275, (4-dimethylamino-piperidin-1-yl)-(4-{4-[4-(3-methanesulfonyl-propoxy)-indol-1-yl]-pyrimidin-2-ylamino}-cyclohexyl)-methanone] | 182.4 to 183 °C and 178.9 to 180.6 °C
NS(=O)(=O)CCCOc1cccc2c1cnn2-c1ccnc(N[C@H]2CC[C@H](C(=O)N3CCCC3)CC2)n1 [Compound 276] | 249 to 250 °C
CC(C)(O)[C@H]1CC[C@H](Nc2nccc(-n3cc(C(N)=O)c4ccccc43)n2)CC1 [Compound 277, 1-{2-[4-(2-hydroxy-prop-2-yl)-cyclohexyl-amino]-pyrimidin-4-yl}-1H-indole-3-carboxylic acid amide] | 222 to 223 °C
CS(=O)(=O)CCCOc1cccc2c1ccn2-c1ccnc(NC2CCC(F)(F)CC2)n1 [Compound 278, (4,4-difluorocyclo-hexyl)-{4-[4-(3-methane-sulfonyl-propoxy)-indol-1-yl]-pyrimidin-2-yl}-amine] | 200 to 201 °C
O=C([C@H]1CC[C@H](Nc2nccc(-n3ccc4c(OCC(F)(F)F)cccc43)n2)CC1)N1CCC(O)CC1 [Compound 279, (4-hydroxy-piperidin-1-yl)-(4-{4-[4-(2,2,2-trifluoroethoxy)-indol-1-yl]-pyrimidin-2-yl-amino}-cyclohexyl)-methanone] | 140.7 to 143.3 °C
CS(=O)(=O)CCCOc1cccc2c1ccn2-c1ccnc(N[C@H]2CC[C@H](NS(=O)(=O)CCCN3CCOCC3)CC2)n1 [Compound 280, 3-morpholin-4-yl-pro-pane-1-sulfonic acid (4-{4-[4-(3-methane-sulfonyl-propoxy)-indol-1-yl]-pyrimidin-2-yl-amino}-cyclohexyl)-amide] | 174 to 179.3 °C
CC(C)(O)COc1cccc2c1ccn2-c1ccnc(N[C@H]2CC[C@H](C(=O)N3CCC(O)CC3)CC2)n1 [Compound 281, (4-{4-[4-(2-hydroxy-2-methyl-propoxy)-indol-1-yl]-pyrimidin-2-yl-amino}-cyclohexyl)-(4-hydroxy-piperidin-1-yl)-methanone] | 174 to 176.9 °C
COc1cccc2c1c(C(N)=O)cn2-c1ccnc(N[C@H]2CC[C@H](C(=O)N3CCC(O)CC3)CC2)n1 [Compound 282, 1-{2-[4-(4-hydroxy-piperidine-1-carbonyl)-cyclohexylamino]-pyrimidin-4-yl}-4-methoxy-1H-indole-3-carboxylic acid amide] | 278 to 280 °C
COc1cccc2c1c(C(N)=O)cn2-c1ccnc(N[C@H]2CC[C@H](N(C)S(C)(=O)=O)CC2)n1 [Compound 283, 1-{2-[4-(methane-sulfonyl-methylamino)-cyclohexylamino]-pyrimidin-4-yl}-4-methoxy-1H-indole-3-carboxylic acid amide] | 285 to 287 °C
COC(=O)CCCOc1cccc2c1ccn2-c1ccnc(N[C@H]2CC[C@H](N(C)S(C)(=O)=O)CC2)n1 [Compound 284, 4-(1-{2-[4-(methane-sulfonyl-methylamino)-cyclohexylamino]-pyrimidin-4-yl}-1H-indol-4-yloxy)-butyric acid methyl ester] | 145 to 146 °C
CS(=O)(=O)CCCOc1cccc2c1ccn2-c1ccnc(N[C@H]2CC[C@H](CCl)CC2)n1 [Compound 285, (4-chloromethyl-cyclo-hexyl)-{4-[4-(3-methane-sulfonyl-propoxy)-indol-1-yl]-pyrimidin-2-yl}-amine] | 152 to 155 °C
CN(C)C1CCN(C(=O)[C@H]2CC[C@H](Nc3nccc(-n4ccc5c(OCCCC(F)(F)F)cccc54)n3)CC2)CC1 [Compound 286, (4-dimethylamino-piperidin-1-yl)-(4-{4-[4-(4,4,4-trifluorobutoxy)-indol-1-yl]-pyrimidin-2-ylamino}-cyclohexyl)-methanone] | 179 to 180 °C
O=C([C@H]1CC[C@H](Nc2nccc(-n3ccc4c(OCC(O)CC(F)(F)F)cccc43)n2)CC1)N1CCC(O)CC1 (some centres unmarked) [Compound 288] | 215 to 215.5 °C
